By TGI is commonly meant the concentration giving total growth inhibition. Low values mean greater sensitivity of the cells, high ones lower sensitivity of the cells. For orientation: GI50 means the concentration giving 50% growth inhibition.

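1) Cells in 96-well plates. 2) Compound, 48 h, 5 concentrations. 3) Linear interpolation between surrounding doses. 4) Unreached endpoint = highest concentration. Here, GI50 denotes the concentration required for 50% inhibition of growth. TGI: concentration producing complete growth inhibition.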

What all share (experiment): DTP human tumour cell line panel, 48 h
Experiment [1] has as its system CAKI-1 renal.
Experiment [2] concerns HCC-2998 colon.
Experiment [3] concerns LOX IMVI melanoma.
Experiment [4] deals with SF-539 CNS.
In experiment [5] the test system is SN12C renal.
Experiment [6] concerns U251 CNS.
Experiment [7] relates to UACC-257 melanoma.
For experiment [8], the system named is HL-60(TB) leukemia.
Experiment [9] deals with BT-549 breast.

Regarding `CC1(C)C(CCO)CC1n1ccc(=O)[nH]c1=O` (configuration not stated), the TGI in experiment [1], in experiment [2], in experiment [3], in experiment [4], in experiment [5] and in experiment [6] was more than 100 µM in each case. Besides, in experiment [7], the total growth inhibition concentration (TGI) is more than 100 µM.

For `Cc1ccc(-n2cc(-c3ccc(Cl)cc3)c3c(NN)ncnc32)cc1`, the TGI in experiment [1] was 8.73 µM; in experiment [2], 22.2 µM; in experiment [8] it was 4.99 µM; in [3] it was 19.7 µM; in experiment [4], 11.3 µM; in [5], 13.9 µM. Moreover, the TGI came to 15.6 µM in experiment [6] and 16.1 µM in experiment [7].

Regarding `NC(Cc1c[nH]c2cc([N+](=O)[O-])ccc12)C(=O)O` (configuration not stated), the TGI in experiment [9], in experiment [1], in experiment [3], in experiment [4], in experiment [5] and in experiment [6] was more than 100 µM in each case. In experiment [7], the TGI was more than 100 µM.

For the compound `COc1ccc(C(Cc2ccccc2)C2NC(=S)NC2=O)cc1` (configuration not stated), the TGI in experiment [1], in experiment [8], in experiment [3], in experiment [4], in experiment [5] and in [6] was more than 25 µM in each case. The same compound displayed a concentration for total growth inhibition (TGI) in experiment [7] of more than 25 µM.

Consider `COc1ccc(/C=C/C(=O)c2ccc(-n3cc(CN4CCN(c5cc6c(cc5F)c(=O)c(C(=O)O)cn6C5CC5)CC4)nn3)cc2)cc1OC`, for which the GI50 in [1] was 5.1 µM; in experiment [8] it was 3.18 µM; in [4] it was 1.91 µM; in experiment [5] it was 2.66 µM; in experiment [6] it was 1.48 µM; in [7] it was 6.34 µM. Besides, the TGI in experiment [1] was 19 µM; in [8], more than 100 µM; in [4], 4.39 µM; in experiment [5], 10 µM; in experiment [6], more than 100 µM; in experiment [7], more than 100 µM.

In the case of `CCOC(=O)c1c(C)nc2c(c1-c1cn(-c3ccccc3)nc1-c1ccccc1)C(=O)c1ccccc1-2`, the TGI in experiment [9], in experiment [1], in experiment [3], in experiment [5], in experiment [6] and in experiment [7] was more than 100 µM each time.

In the case of `Cc1ccc(S(=O)(=O)[C@@H](Cl)[C@H]2N=C(Cl)NN=C2c2ccccc2)cc1`, the TGI is 59 µM in experiment [9]; more than 100 µM in [1]; more than 100 µM in [2]; 51.8 µM in [3]; 61.1 µM in experiment [4]; 54 µM in experiment [5]. The TGI in [6] came out at 55.9 µM; in experiment [7], 48.1 µM.

With `C=C[C@@]1(O)CCCC[C@@H]1CC(Sc1ccccc1)Sc1ccccc1`, the TGI in experiment [1] was 30.1 µM; in experiment [2] it was 26.6 µM; in experiment [8], more than 100 µM; in experiment [3], 34.5 µM; in [5], 34.3 µM; in experiment [6], 31.9 µM. The compound also displayed a concentration for total growth inhibition (TGI) in [7] of 39.6 µM.

Regarding `COC(=O)c1c(C)cccc1C1CN=NC12Cc1ccc(C)c(C)c1C2=O` (configuration not stated), the TGI in [1] was more than 100 µM; in [2] it was 90.6 µM; in experiment [8], 28.6 µM; in [3], more than 100 µM; in experiment [4] it was more than 100 µM; in [5], more than 100 µM. For the same compound, the TGI in experiment [6] and in experiment [7] was more than 100 µM each time.

Take `CN1N=C(c2ccncc2)OC1c1cccc(C(F)(F)F)c1` (configuration not stated): the TGI in experiment [2] was more than 100 µM; in experiment [8], more than 100 µM; in [3] it was more than 100 µM; in [4] it was 65.8 µM; in experiment [5], more than 100 µM; in experiment [6], more than 100 µM. The compound also registered a TGI in experiment [7] of more than 100 µM.

`Cc1ccnc2nc(N)ccc12`: the concentration for total growth inhibition (TGI) in experiment [9], in experiment [1], in experiment [8], in experiment [4], in experiment [5] and in experiment [6] was more than 100 µM throughout. In addition, the TGI in experiment [7] is more than 100 µM.

For the compound `N#C/C(=C\c1ccc([N+](=O)[O-])s1)c1nc2cc(Cl)ccc2s1`, the GI50 in [2] was 2.31 µM; in experiment [4], 1.21 µM; in experiment [5], 0.296 µM; in experiment [6], 0.599 µM. The total growth inhibition concentration (TGI) in experiment [2] is 6.8 µM; in experiment [4], 2.79 µM; in experiment [5], 1.43 µM; in [6], 3.02 µM.

For the compound `CC12CCCCC1=[N+]([O-])C(C)(C)N2O` (configuration not stated), the TGI in experiment [1], in experiment [2], in [3], in [4], in experiment [5] and in experiment [6] was more than 100 µM in each case. In experiment [7], the TGI was more than 100 µM.

Turning to `O=CC(O)C(O)C(O)C1CNC(=S)O1` (configuration not stated), the TGI in experiment [9], in experiment [1], in [8], in experiment [3], in experiment [4] and in [5] was more than 100 µM in each case. For the same compound, the TGI in experiment [6] and in [7] was more than 100 µM throughout.

Turning to `COc1ccccc1N=Nc1c(O)c(S(=O)(=O)O)cc2cc(S(=O)(=O)O)ccc12`, the TGI in experiment [9], in experiment [1], in [3], in experiment [5], in [6] and in experiment [7] was more than 100 µM throughout.

For `CC(=O)NC1=C(NCCCl)C(=O)c2ccccc2C1=O`, the TGI in experiment [9] is more than 100 µM; in experiment [2], more than 100 µM; in experiment [4], more than 100 µM; in experiment [5], more than 100 µM; in experiment [6], more than 100 µM; in [7], 33.7 µM.

For the compound `O=C1C=C2CCC[C@H]3OC(=O)C[C@@]23CC1`, the TGI in experiment [1], in experiment [2], in experiment [8], in experiment [3], in experiment [4] and in [5] was more than 100 µM in each case. For the same compound, the total growth inhibition concentration (TGI) in [6] and in [7] was more than 100 µM throughout.

For the origin of these results see PubChem BioAssay (NCI).
